Assay results published in PubChem BioAssay AID248 (DTP/NCI, 2004).
Values joined by “and” are separate entries in the source; they are usually repeats but may differ in a detail not shown here. Equal values may be shown once. Inconclusive results and toxic doses are left out. No stated cut-off is given here; in the data, active means T/C of 150% or more; inactive means T/C below 125%.

Test system: L1210 leukemia ip in BDF1 mice, survival T/C
Experiment: NCI In Vivo Anticancer Drug Screen. Data for tumor model L1210 Leukemia (intraperitoneal) in B6D2F1 (BDF1) mice
Conditions: endpoint: mean survival time, higher = longer survival
How it was run: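 In this screen, tumor-bearing mice given compound are compared to those given vehicle, and their survival values are reported as a treated-to-control quotient.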

Measured: T/C

CC1=C(OS(=O)(=O)c2ccc(C)cc2)CCCC1=O
inactive: dose: 50.0 mg/kg/injection, schedule: Q01DX009 (ip), vehicle: saline with Tween-80 100 % of control | dose: 100.0 mg/kg/injection, schedule: Q01DX009 (ip), vehicle: saline with Tween-80 100 % of control | dose: 200.0 mg/kg/injection, schedule: Q01DX009 (ip), vehicle: saline with Tween-80 88 % of control

Nc1nc([Se])c2cc[nH]c2n1
inactive: dose: 12.5 mg/kg/injection, schedule: Q01DX009 (ip), vehicle: water 107 % of control | dose: 25.0 mg/kg/injection, schedule: Q01DX009 (ip), vehicle: water 102 % of control | dose: 25.0 mg/kg/injection, schedule: Q04DX003 (ip), vehicle: water 97 % of control | dose: 50.0 mg/kg/injection, schedule: Q01DX009 (ip), vehicle: water 104 % of control | dose: 50.0 mg/kg/injection, schedule: Q04DX003 (ip), vehicle: water 102 % of control | dose: 100.0 mg/kg/injection, schedule: Q04DX003 (ip), vehicle: water 94 % of control and 95 % of control
